Laboratory results: the supplement of paper PMC10307832

Key:
Assay in all cases: relative viability (nuclei count vs DMSO), 5 days (fraction); higher = more cells survive
IU1-47 + Luminespib = compound: CC1=CC(=C(N1C2=CC=C(C=C2)Cl)C)C(=O)CN3CCCCC3 [IU1-47] + CCNC(=O)c1noc(-c2cc(C(C)C)c(O)cc2O)c1-c1ccc(CN2CCOCC2)cc1 [Luminespib] (partner 0.01 µM)
Summary of the method: (§1)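 Lung cancer cell lines were seeded in 1536-well plates and dosed by pin tool the next day, with either a single drug or a fixed anchor-drug dose combined with five library-drug doses (not always all listed) spaced in √10 steps. Five days later, one step fixed the cells and stained their nuclei (final 0.05% Triton X-100, 1% formaldehyde, 1 ug/ml Hoechst), and nuclei were counted on 4× images. Relative viability is the nuclei count in treated wells divided by the count in vehicle wells, and each value is the median of duplicate plates.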

IU1-47 + Pictilisib = compound: CC1=CC(=C(N1C2=CC=C(C=C2)Cl)C)C(=O)CN3CCCCC3 [IU1-47] + CS(=O)(=O)N1CCN(Cc2cc3nc(-c4cccc5[nH]ncc45)nc(N4CCOCC4)c3s2)CC1 [Pictilisib] (partner 1 µM)
Summary of the method: as §1

FG-4592 + OSI-027 = compound: Cc1nc(C(=O)NCC(=O)O)c(O)c2ccc(Oc3ccccc3)cc12 [FG-4592] + COc1cccc2cc(-c3nc([C@H]4CC[C@H](C(=O)O)CC4)n4ncnc(N)c34)[nH]c12 [OSI-027] (partner 0.5 µM)
Summary of the method: as §1

FG-4592 + AZD7762 = compound: Cc1nc(C(=O)NCC(=O)O)c(O)c2ccc(Oc3ccccc3)cc12 [FG-4592] + NC(=O)Nc1cc(-c2cccc(F)c2)sc1C(=O)N[C@H]1CCCNC1 [AZD7762] (partner 0.2 µM)
Summary of the method: as §1

Cell Line | relative viability (IU1-47 + Luminespib; first compound 0.08 µM) | relative viability (IU1-47 + Luminespib; first compound 0.253 µM) | relative viability (IU1-47 + Luminespib; first compound 0.8 µM) | relative viability (IU1-47 + Luminespib; first compound 2.53 µM) | relative viability (IU1-47 + Luminespib; first compound 8 µM) | relative viability (IU1-47 + Pictilisib; first compound 0.08 µM) | relative viability (IU1-47 + Pictilisib; first compound 0.253 µM) | relative viability (IU1-47 + Pictilisib; first compound 0.8 µM) | relative viability (IU1-47 + Pictilisib; first compound 8 µM) | relative viability (FG-4592 + OSI-027; first compound 0.08 µM) | relative viability (FG-4592 + OSI-027; first compound 0.253 µM) | relative viability (FG-4592 + OSI-027; first compound 0.8 µM) | relative viability (FG-4592 + OSI-027; first compound 2.53 µM) | relative viability (FG-4592 + OSI-027; first compound 8 µM) | relative viability (FG-4592 + AZD7762; first compound 0.08 µM) | relative viability (FG-4592 + AZD7762; first compound 0.253 µM) | relative viability (FG-4592 + AZD7762; first compound 0.8 µM) | relative viability (FG-4592 + AZD7762; first compound 2.53 µM) | relative viability (FG-4592 + AZD7762; first compound 8 µM) | relative viability (IU1-47 + Pictilisib; first compound 2.53 µM)
NCI-H1395 | 0.678 | 0.715 | 0.547 | 0.597 | 0.813 | 0.597 | 0.65 | 0.569 | 0.433 | 0.593 | 0.644 | 0.56 | 0.612 | 0.549 | 0.446 | 0.396 | 0.413 | 0.385 | 0.396 | –
NCI-H1437 | 1.2 | 1.1 | 1.21 | 1.11 | 1.1 | 0.403 | 0.428 | 0.423 | 0.35 | 0.907 | 0.812 | 0.862 | 0.667 | 0.506 | 1.19 | 1.08 | 1.17 | 0.995 | 1.08 | 0.413
NCI-H1651 | 0.876 | 0.85 | 0.924 | 0.974 | 0.819 | 0.526 | 0.575 | 0.573 | 0.468 | 0.741 | 0.639 | 0.719 | 0.645 | 0.605 | 0.474 | 0.455 | 0.433 | 0.442 | 0.455 | –
NCI-H1666 | 1.08 | 1.02 | 0.938 | 0.942 | 0.854 | 0.436 | 0.452 | 0.455 | 0.407 | 0.809 | 0.803 | 0.837 | 0.775 | 0.621 | 0.81 | 0.764 | 0.899 | 0.9 | 0.875 | 0.448
NCI-H1734 | 0.181 | 0.202 | 0.18 | – | 0.215 | 0.463 | 0.442 | 0.464 | 0.427 | 0.565 | 0.621 | 0.541 | 0.529 | 0.445 | 0.63 | 0.474 | 0.456 | 0.547 | 0.427 | –
NCI-H1755 | 0.273 | 0.465 | 0.325 | 0.479 | 0.451 | 0.433 | 0.419 | 0.503 | 0.318 | 0.661 | 0.649 | 0.727 | 0.737 | 0.693 | 0.408 | 0.621 | 0.361 | 0.491 | 0.446 | 0.334
NCI-H1792 | 0.573 | 0.358 | 0.515 | 0.308 | 0.568 | 0.26 | 0.318 | 0.253 | 0.286 | 0.803 | 0.69 | 0.794 | 0.575 | 0.735 | 0.81 | 0.637 | – | 0.834 | 0.654 | 0.165
NCI-H1793 | 0.177 | 0.188 | 0.165 | – | 0.171 | 0.284 | 0.293 | 0.363 | 0.262 | 0.223 | 0.229 | – | 0.178 | 0.254 | – | 0.48 | – | 0.696 | 0.37 | –
NCI-H1915 | 0.816 | 0.804 | 0.848 | – | 0.728 | 0.854 | 0.915 | 0.977 | 0.985 | 0.521 | 0.59 | 0.683 | 0.579 | 0.578 | 0.672 | 0.652 | 0.715 | 0.637 | 0.669 | –
NCI-H1944 | 0.989 | 0.764 | 0.832 | 0.729 | 0.778 | 0.361 | 0.371 | 0.335 | 0.356 | 0.401 | 0.367 | 0.412 | 0.325 | 0.364 | 0.479 | 0.675 | 0.368 | 0.509 | 0.471 | –
NCI-H1975 | 0.142 | 0.198 | 0.199 | 0.228 | 0.37 | 0.274 | 0.293 | 0.305 | 0.256 | 0.693 | 0.605 | 0.75 | 0.652 | 0.614 | 0.782 | 0.644 | 0.684 | 0.712 | 0.709 | 0.281
NCI-H1993 | 0.857 | 0.888 | 0.804 | 0.868 | 0.716 | 0.899 | 0.769 | 0.86 | 0.821 | 0.508 | 0.504 | 0.546 | 0.512 | 0.559 | 0.769 | 0.723 | – | 0.892 | 0.56 | 0.913
NCI-H2085 | 0.446 | 0.5 | 0.522 | 0.446 | 0.318 | 0.445 | 0.426 | 0.422 | 0.447 | 0.788 | 0.735 | 0.648 | 0.519 | 0.652 | 0.983 | 0.956 | 0.905 | 0.992 | 0.893 | 0.47
NCI-H2087 | 0.194 | 0.166 | 0.18 | – | 0.163 | 0.884 | 0.865 | 1.11 | 0.83 | 0.559 | 0.538 | 0.669 | 0.473 | 0.486 | 1.34 | 1.24 | 1.32 | – | 1.38 | 0.452
NCI-H2126 | 0.928 | 0.975 | 0.949 | – | 0.899 | 0.47 | 0.477 | 0.52 | 0.493 | 0.806 | 0.627 | 0.663 | 0.623 | 0.67 | 1.04 | 0.951 | 0.918 | 1.06 | 1.01 | 0.382
NCI-H2170 | 0.706 | 1.13 | 0.759 | 0.66 | 0.994 | 0.309 | 0.308 | 0.287 | 0.331 | 0.788 | 0.66 | 0.652 | 0.693 | 0.531 | 0.755 | 0.834 | 0.816 | 0.817 | 0.643 | 0.305
NCI-H2347 | 0.233 | 0.363 | 0.642 | 0.513 | 0.32 | 0.505 | 0.651 | 0.446 | 0.457 | 0.235 | – | 0.491 | 0.3 | 0.46 | 0.72 | 0.546 | 0.724 | 0.85 | 0.744 | 0.448
